Results taken from US7071349B2, “Purification method of N-(1(S)-ethoxycarbonyl-3-phenylpropyl)-L-alanine” (Kanaka Corporation, priority 2001, dated 2006).

Assay: Solubility of the pure product in mixed solvents of ethanol and water
Type: physicochemical
Protocol: One-hundred milliliters each of mixed solvents of ethanol and water in predetermined volume ratios were respectively adjusted to predetermined temperatures and each […] of N-(1(S)-ethoxycarbonyl-3-phenylpropyl)-L-alanine was no longer dissolved. After 30 minutes of standing, the supernatant was taken and the solubility (weight %) was determined according to the weight after concentration to dryness/the weight of the solution.

Solubility (ethanol/water volume ratio 0.43, 10° C.): 1 weight %
Solubility (ethanol/water volume ratio 0.43, 65° C.): 9 weight %
Solubility (ethanol/water volume ratio 1.00, 10° C.): 2 weight %
Solubility (ethanol/water volume ratio 1.00, 20° C.): 3 weight %
Solubility (ethanol/water volume ratio 1.00, 65° C.): 21 weight %
Solubility (ethanol/water volume ratio 2.33, 10° C.): 3 weight %
Solubility (ethanol/water volume ratio 2.33, 20° C.): 4 weight %
Solubility (ethanol/water volume ratio 2.33, 65° C.): 42 weight %
Solubility (ethanol/water volume ratio 4.00, 10° C.): 4 weight %
Solubility (ethanol/water volume ratio 4.00, 20° C.): 5 weight %
Solubility (ethanol/water volume ratio 4.00, 65° C.): 45 weight %
Solubility (ethanol/water volume ratio 5.67, 10° C.): 3 weight %
Solubility (ethanol/water volume ratio 5.67, 20° C.): 5 weight %
Solubility (ethanol/water volume ratio 5.67, 65° C.): 42 weight %
Solubility (ethanol/water volume ratio 15.7, 10° C.): 3 weight %
Solubility (ethanol/water volume ratio 15.7, 20° C.): 4 weight %
Solubility (ethanol/water volume ratio 15.7, 65° C.): 26 weight %
Solubility (ethanol/water volume ratio 249, 10° C.): 2 weight %
Solubility (ethanol/water volume ratio 249, 20° C.): 3 weight %
Solubility (ethanol/water volume ratio 249, 65° C.): 17 weight %
Structure (SMILES): CCOC(=O)[C@H](CCc1ccccc1)N[C@@H](C)C(=O)O [N-(1(S)-ethoxycarbonyl-3-phenylpropyl)-L-alanine]
